# According to patent US11339193B2, “CDP protein secretion inhibitors” (KEZAR LIFE SCIENCES, priority 2018, dated 2022):
# Where two headings read alike, the source gives them in different places. Peptide text beside a SMILES is read from it.
# Columns and labels:
# Assay type in all cases: cell-based
# [1] = test system: U266B1 multiple myeloma cell line; test: U266 assay (cell viability, Celltiter-Glo); settings: Homo sapiens, U-266; 48 hours, cell viability
# Procedure: Cells were plated in 384-well tissue culture plates and treated with compound dilutions in DMSO/media. Plates were incubated at 37° C., 5% CO2 for 48 hours. After 48 hours, Celltiter-Glo@ (Promega) was added to each well and luciferase signal was quantified using Tecan Infinite M1000 Pro for cell viability determination.
# [2] = test system: TNFα-FL/Gaussia Luciferase; test: Dox induced TNFα-FL-Gluc assay; settings: Flp-In 293 T-REx cells, doxycycline, 24 hours; read-out: TNFa FL Gluc IC50
# Method in brief: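 Stable Flp-In 293 T-REx line expressing full-length TNFα (aa 1-233) fused at its C-terminus to Gaussia luciferase under doxycycline-inducible control. Cells plated the day before, then given compound dilutions in DMSO/media containing doxycycline and incubated at 37 °C, 5% CO2.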
# [3] = test system: BT474 breast tumor cell line; test: BT474 assay (Alamar blue); settings: Homo sapiens, BT-474, 72 h
# Method in brief: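 For both lines, 5000 cells/well were exposed to compound or a 1% DMSO-medium control for 72 h unless otherwise specified. Signal was normalized to the DMSO control.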
# [4] = test system: NCI-H929 multiple myeloma cell line; test: H929 assay (cell viability, Celltiter-Glo); settings: Homo sapiens, NCI-H929; 48 hours, cell viability; read-out: H929 EC50
# Method in brief: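 Cells plated in RPMI 1640 with 10% FBS and 2 mM glutamine, treated with compound dilutions in DMSO/media. Incubation 48 h at 37° C, 5% CO2. Viability from luciferase luminescence signal.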
# [5] = test system: PD1-ss+10aa/Gaussia Luciferase; test: Dox induced PD1-ss-Gluc assay; settings: Flp-In 293 T-REx cells, doxycycline, 24 hours; read-out: PD1ss Gluc IC50
# Method in brief: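 Stable Flp-In 293 T-REx line expressing doxycycline-inducible Gaussia luciferase fused to the PD1 signal sequence plus 10 amino acids. Cells plated the day before, then exposed to compound dilutions in DMSO/media containing doxycycline at 37 °C, 5% CO2.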
# [6] = test system: IL7Rss-Gluc; test: IL7Rss assay
# Procedure: The mature domain of secreted luciferase from Gaussia princeps (GLuc) was cloned into pcDNA5/FRT/TO. The signal sequence plus four amino acids of the mature domain from IL7R ([…]) (SEQ ID NO:6) were cloned upstream of GLuc mature domain and used in transient transfection experiment. HEK-293T T-rex cells were cultured in Dulbecco's modified Eagle's medium with 10% FBS at 5% CO2. Cells were plated 1×10e6 cells per well in a 6-well plate and incubated for 6 h. Cells were transiently transfected with IL7Rss-Gluc using Lipofectamine 2000 (Invitrogen). After overnight incubation, transfected cells were replated in a clear-bottomed, black 96-well plate at a density of 20,000 cells per well. Six hours after plating, the cells were treated with doxycycline (1 μg/ml) and increasing concentrations of the indicated compounds for 24 h. Secreted luciferase in the conditioned media was quantified by luminescence using the BioLux Gaussia Luciferase Assay Kit (New England Biolabs, Ipswich, Mass., USA) and a SpectraMax M5 plate reader (Molecular Devices).
# [7] = test system: HER3ss-Gluc; test: HER3ss assay; settings: HEK-293T T-rex cells, transient transfection, doxycycline, 24 h; read-out: HER3 ss IC50
# Method in brief: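 HEK-293T T-REx cells were transiently transfected with HER3 signal sequence (plus four mature-domain residues) fused upstream of mature Gaussia luciferase. Cells were induced with doxycycline (1 μg/ml) and exposed to increasing compound concentrations for 24 h, then secreted luciferase in the conditioned medium was read by luminescence.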
"IC50 ([6]; HEK-293T T-rex cells, transient transfection, doxycycline, 24 h; read-out: IL7Rss IC50)",SMILES,EC50 [1],IC50 [2],EC50 [3],EC50 [4],IC50 [5],"IC50 ([6]; read-out: IL7Rss IC50; HEK-293T T-rex cells, transient transfection, doxycycline, 24 h)",IC50 [7]
–,C#CC[C@H]1OC(=O)[C@H](C)N(C)C(C)[C@H](C[C@H](C)CCCC)NC(=O)[C@H](Cc2ccccc2)N(C)C(=O)[C@H](CC(C)C)NC(=O)[C@H](CC(C)C)N(C)C(=O)[C@H](C[C@H](C)CCCC)NC1=O (some centres unmarked) [C-01],23500 nM,79 nM,730 nM,454 nM,56 nM,23 nM,40 nM
10 nM,"CC(C)C[C@@H]1NC(=O)[C@H](Cc2cn(Cc3ccccc3)c3ccccc23)N(C)C(=O)[C@H](CC(C)C)NC(=O)[C@H](CC(C)C)N(C)C(=O)[C@H](CC(C)C)NC(=O)[C@@H](CCC#N)OC(=O)[C@H](C)N(C)C1=O [C-16] (HELM PEPTIDE1{L.[meA].[N#CCC[C@@H](O[*:1])C(=O)[*:2]].L.[meL].L.[CN([C@@H](Cc1cn(Cc2ccccc2)c2ccccc12)C(=O)[*:2])[*:1]]}$PEPTIDE1,PEPTIDE1,1:R1-7:R2$$$V2.0)",13400 nM,92 nM,745 nM,941 nM,27 nM,–,38 nM
